Measured values from US8877798B2, “1-aryl-3-azabicyclo[3.1.0]hexanes: preparation and use to treat neuropsychiatric disorders” (priority 2005, dated 2014).
Where two headings read alike, the source gives them in different places.

How the values were obtained:
[1] = biological target: dopamine (DA) uptake, rat striatum synaptosomes (Rattus norvegicus (Rat), UniProt P23977); test: Dopamine (DA) uptake inhibition in rat striatum synaptosomes; format: biochemical
Description: (§1) The effects of exemplary compounds of the invention on the cellular uptake of norepinephrine (NE), dopamine (DA) and serotonin (5-HT) were tested in preparations of synaptosomes from different rat brain regions using the previously-reported techniques referenced below.
(§2) Whole brains were obtained from normal rats. Synaptosomal preparations were made from either whole brain (5-HT), striatum (DA) or hypothalamus (NE) by gentle disruption in 10 volumes (w/v) of 0.32 M sucrose (0-4° C.) using a Teflon-glass homogenizer. The homogenate was then centrifuged at 1000×g for 10 min. The supernatant was retained and centrifuged at 23000 g for 20 min. The resulting pellet was gently resuspended in 200 volumes of 0.32 M sucrose (0-4° C.) using the Teflon-glass homogenizer. Aliquots (250 μL) of this preparation were added to tubes, along with 0.2 μCi/mL of [^3H]5-HT, [^3H]DA, or [^3H]NE, 200 μL of the test compounds (to yield final concentrations of 100 nM, 300 nM, 1 μM, 3 μM, 10 μM, 30 μM or 100 μM) and 1 mL of Krebs-Ringer bicarbonate buffer (pH 7.4). The mixtures were incubated for either 15 (DA and 5-HT uptake) or 20 (NE uptake) minutes at 37° C. At the end of this period, the assay was terminated by rapid filtration over Whatman GF/C glass fiber filters. The filters were rinsed 3 times with 4 ml of Krebs-Ringer bicarbonate buffer (0-4° C.), and the radioactivity retained on the filters measured by liquid scintillation spectrometry.
(§3) Each assay was run according to the description of the respective publications cited above, and according to the following parameters/reagents/conditions.
(§4) In each experiment, the respective reference compound was tested concurrently with the test compounds in order to assess the assay suitability. It was tested at several concentrations (for IC50 value determination). The assay was considered valid if the suitability criteria were met, in accordance with the corresponding Standard Operating Procedure.
The results of these uptake inhibition assays are expressed below as a percent of control values obtained in the […] of the test compounds. Individual and mean values are presented with the results. The IC50 values (concentration causing a half-maximal inhibition of control values) were determined by non-linear regression analysis of the inhibition curves using Hill equation curve fitting.

[2] = biological target: 5-HT uptake, rat brain synaptosomes (Rattus norvegicus (Rat), UniProt P31652); test: 5-HT uptake inhibition in rat brain synaptosomes; format: biochemical
Description: as §1, §2, §3, §4
Individual and mean values are presented with the results. The IC50 values (concentration causing a half-maximal inhibition of control values) were determined by non-linear regression analysis of the inhibition curves using Hill equation curve fitting.

SERT = SERT (Homo sapiens (Human), UniProt P31645); test: SERT binding
DAT = DAT (Homo sapiens (Human), UniProt Q01959); test: DAT binding
NET = NET (Homo sapiens (Human), UniProt P23975); test: NET binding
[3] = tested on: reuptake of norepinephrine, serotonin and dopamine; settings: reported in the literature (Skolnick et al. 2003); cited from earlier work
[4] = [3H]5-HT, rat brain synaptosomes, 15 min at 37° C., read-out: Uptake IC50 (nM) 5-HT

Sequence of dopamine (DA) uptake, rat striatum synaptosomes (P23977 whole entry): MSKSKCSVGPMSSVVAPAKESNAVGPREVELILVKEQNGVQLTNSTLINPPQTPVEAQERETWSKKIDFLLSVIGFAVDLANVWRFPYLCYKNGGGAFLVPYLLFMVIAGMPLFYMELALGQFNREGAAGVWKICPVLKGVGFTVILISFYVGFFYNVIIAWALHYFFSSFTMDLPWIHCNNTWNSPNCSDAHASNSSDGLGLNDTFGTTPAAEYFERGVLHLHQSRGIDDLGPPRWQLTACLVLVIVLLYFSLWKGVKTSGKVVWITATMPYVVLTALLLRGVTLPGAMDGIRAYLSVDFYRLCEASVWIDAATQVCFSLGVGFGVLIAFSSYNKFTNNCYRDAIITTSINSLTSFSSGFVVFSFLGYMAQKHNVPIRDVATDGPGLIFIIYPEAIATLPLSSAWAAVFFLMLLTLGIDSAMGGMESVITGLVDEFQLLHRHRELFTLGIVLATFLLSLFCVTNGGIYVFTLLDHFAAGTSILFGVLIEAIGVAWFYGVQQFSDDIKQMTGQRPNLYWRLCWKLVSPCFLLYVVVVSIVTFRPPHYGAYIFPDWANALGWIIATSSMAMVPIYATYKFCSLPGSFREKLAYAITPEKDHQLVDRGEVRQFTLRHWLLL

Row | SMILES | IC50 [1] | IC50 [2, 4] | Ki (SERT; read-out: Binding SERT Ki) | Ki (DAT; read-out: Binding DAT Ki) | Ki (NET; read-out: Binding NET Ki) | also measured
1 | c1ccc2cc([C@@]34CNCC3C4)ccc2c1 (stereo partly shown) | 98 nM |  |  |  |  | IC50 [2]: 170 nM
2 | CCOc1ccc2cc(C34CNCC3C4)ccc2c1 (stereo not shown) | 563 nM | 700 nM |  |  |  | 
3 | CCOc1ccc2cc(C34CC3CN(C)C4)ccc2c1 (stereo not shown) | 360 nM | 210 nM |  |  |  | 
4 | CCCCN1CC2C[C@]2(c2ccc(Cl)c(Cl)c2)C1 (stereo partly shown) | 1200 nM | 2600 nM | 8900 nM | 215 nM | 1100 nM | 
5 | CN1CC2CC2(c2ccc3ccccc3c2)C1 (stereo not shown) | 350 nM | 31 nM | 6 nM | 68 nM | 520 nM | 
6 | CCCCN1CC2CC2(c2ccc(Cl)c(Cl)c2)C1 (stereo not shown) | 78 nM | 1200 nM | 6100 nM | 240 nM | 2200 nM | 
7 | CN1CC2CC2(c2ccc([N+](=O)[O-])c(Cl)c2)C1 (stereo not shown) |  | 790 nM | 710 nM |  |  | 
8 | Cc1ccc(C23CC2CN(C)C3)cc1F (stereo not shown) | 700 nM | 110 nM | 830 nM | 270 nM | 260 nM | 
9 | CC(C)N1CC2C[C@@]2(c2ccc(Cl)c(Cl)c2)C1 (stereo partly shown) | 330 nM | 170 nM | 330 nM | 25 nM | 510 nM | 
10 | COc1ccc2cc(C34CC3CN(C)C4)ccc2c1 (stereo not shown) | 91 nM | 14 nM |  |  |  | 
11 | Cc1ccc(C23CNCC2C3)cc1F (stereo not shown) | 457 nM | 266 nM |  |  |  | 
12 | Fc1ccc([C@]23CNCC2C3)cc1Cl (stereo partly shown) | 572 nM | 186 nM |  |  |  | 
13 | CN1CC2CC2(c2ccc(Cl)cc2Cl)C1 (stereo not shown) | 10000 nM | 520 nM | 500 nM |  | 6200 nM | 
14 | CN1CC2C[C@@]2(c2ccc(Cl)c(Cl)c2)C1 (stereo partly shown) | 120 nM | 23 nM | 16 nM | 105 nM | 81 nM | 
15 | CCN1CC2C[C@]2(c2ccc(Cl)c(Cl)c2)C1 (stereo partly shown) | 190 nM | 45 nM | 113 nM | 46 nM | 585 nM | 
16 | Fc1cc([C@]23CNCC2C3)ccc1Cl (stereo partly shown) | 420 nM | 252 nM |  |  |  | 
17 | CN1CC2C[C@]2(c2ccc(Cl)c(Cl)c2)C1 (stereo partly shown) | 130 nM | 87 nM | 125 nM | 62 nM | 490 nM | 
18 | CN1CC2CC2(c2ccc(F)cc2F)C1 (stereo not shown) | 7400 nM | 1100 nM |  |  | 6600 nM | 
19 | CN1CC2C[C@]2(c2ccc3ccccc3c2)C1 (stereo partly shown) | 147 nM | 117 nM |  |  |  | 
20 | Cc1cc(C23CC2CN(C)C3)ccc1F (stereo not shown) | 370 nM | 200 nM | 540 nM | 2200 nM | 920 nM | 
21 | CN1CC2CC2(c2cccc3ccccc23)C1 (stereo not shown) | 512 nM | 119 nM |  |  |  | 
22 | CN1CC2C[C@@]2(c2ccc(F)c(Cl)c2)C1 (stereo partly shown) | 494 nM | 362 nM |  |  |  | 

Row | SMILES | IC50 [1] | IC50 [2, 4] | Ki (SERT; read-out: Binding SERT Ki) | Ki (DAT; read-out: Binding DAT Ki) | Ki (NET; read-out: Binding NET Ki) | also measured
23 | Clc1ccc(C23CNCC2C3)cc1Cl (stereo not shown) [1-(3,4-dichlorophenyl)-3-azabicyclo[3.1.0]hexane] |  |  |  |  |  | inhibition of reuptake of norepinephrine, serotonin and dopamine [3]: inhibit reuptake of norepinephrine, serotonin and dopamine
24 | c1ccc2cc([C@]34CNCC3C4)ccc2c1 (stereo partly shown) | 49 nM |  |  |  |  | IC50 [2]: 65 nM
25 | Cc1ccc([C@]23CNCC2C3)cc1F (stereo partly shown) | 401 nM | 133 nM |  |  |  | 
26 | CCCN1CC2C[C@@]2(c2ccc(Cl)c(Cl)c2)C1 (stereo partly shown) | 1800 nM | 590 nM | 2000 nM | 220 nM | 4000 nM | 
27 | Cc1ccc([C@]23CC2CN(C)C3)cc1F (stereo partly shown) | 917 nM | 702 nM |  |  |  | 
28 | CCCCN1CC2C[C@@]2(c2ccc(Cl)c(Cl)c2)C1 (stereo partly shown) | 2200 nM | 3000 nM | 7600 nM | 395 nM | 1900 nM | 
29 | CN1CC2C[C@@]2(c2ccc3ccccc3c2)C1 (stereo partly shown) | 82 nM | < 10 nM |  |  |  | 
30 | CN1CC2C[C@@]2(c2ccc(Cl)c(F)c2)C1 (stereo partly shown) | 437 nM | 413 nM |  |  |  | 
31 | Fc1ccc(C23CNCC2C3)cc1Cl (stereo not shown) | 1400 nM | 310 nM | 230 nM | 680 nM | 1700 nM | 
32 | CC(C)(C)N1CC2CC2(c2ccc(Cl)c(Cl)c2)C1 (stereo not shown) |  |  |  |  |  | Ki (SERT): 800 nM; IC50 ([1]; [3H]DA, rat striatum synaptosomes, 15 min at 37° C., read-out: Uptake IC50 (nM) DA): 1500 nM; IC50 [2]: 240 nM; Ki (DAT): 420 nM; Ki (NET): 9300 nM
33 | CCCN1CC2C[C@]2(c2ccc(Cl)c(Cl)c2)C1 (stereo partly shown) | 770 nM | 390 nM | 2400 nM | 170 nM | 1070 nM | 
34 | Clc1ccc(C23CC2CN(C2CC2)C3)cc1Cl (stereo not shown) | 1500 nM | 2600 nM | 3700 nM | 1700 nM | 9500 nM | 
35 | CCN1CC2C[C@@]2(c2ccc(Cl)c(Cl)c2)C1 (stereo partly shown) | 80 nM | 56 nM | 88 nM | 13 nM | 32 nM | 
36 | CN1CC2CC2(c2ccc(F)c(Cl)c2)C1 (stereo not shown) | 770 nM | 79 nM | 190 nM | 640 nM | 350 nM | 
37 | CC(C)N1CC2C[C@]2(c2ccc(Cl)c(Cl)c2)C1 (stereo partly shown) | 430 nM | 100 nM | 132 nM | 72 nM | 5150 nM | 
38 | COc1ccc2cc(C34CNCC3C4)ccc2c1 (stereo not shown) | 208 nM | 82 nM |  |  |  | 
39 | CCCN1CC2CC2(c2ccc(Cl)c(Cl)c2)C1 (stereo not shown) | 1000 nM | 470 nM | 1670 nM | 250 nM | 1830 nM | 
40 | CN1CC2CC2(c2ccc(F)c(F)c2)C1 (stereo not shown) | 1800 nM | 400 nM | 1600 nM | 1900 nM | 990 nM | 
41 | CN1CC2C[C@]2(c2ccc(F)c(Cl)c2)C1 (stereo partly shown) |  | 835 nM |  |  |  | 
42 | Cc1ccc([C@@]23CC2CN(C)C3)cc1F (stereo partly shown) | 383 nM | 836 nM |  |  |  | 
43 | CC(C)N1CC2CC2(c2ccc(Cl)c(Cl)c2)C1 (stereo not shown) | 260 nM | 30 nM | 124 nM | 39 nM | 827 nM | 
44 | CN1CC2C[C@@]2(c2cccc3ccccc23)C1 (stereo partly shown) | 903 nM |  |  |  |  | 
